One molecule from paper PMC5654414, “In vitro and in vivo comparative and competitive activity-based protein profiling of GH29 α-L-fucosidases” (Chemical Science, 2015) can be followed below.

Series [1] addresses T1, retaining α-L-fucosidases (Mus musculus, UniProt Q99LJ1).
T1 construct: from tissue; host or cells: C57Bl/6J mouse spleen, liver, kidney, brain (in vivo)
T1 sequence (Q99LJ1 18-452): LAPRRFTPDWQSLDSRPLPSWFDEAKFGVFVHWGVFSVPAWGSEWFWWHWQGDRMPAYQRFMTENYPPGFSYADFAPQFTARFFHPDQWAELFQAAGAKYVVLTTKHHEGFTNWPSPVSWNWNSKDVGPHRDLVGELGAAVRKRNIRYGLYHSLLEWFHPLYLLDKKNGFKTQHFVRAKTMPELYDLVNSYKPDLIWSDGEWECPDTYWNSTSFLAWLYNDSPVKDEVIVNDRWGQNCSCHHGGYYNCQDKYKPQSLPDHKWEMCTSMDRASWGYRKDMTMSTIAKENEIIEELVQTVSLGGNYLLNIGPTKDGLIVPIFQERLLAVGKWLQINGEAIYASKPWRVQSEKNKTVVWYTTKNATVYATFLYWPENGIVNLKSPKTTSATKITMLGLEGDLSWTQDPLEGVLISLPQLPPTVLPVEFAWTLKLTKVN
The series can be described thus: In vivo labeling of α-L-fucosidases in mice. Also noted: species or system C57Bl/6J mice. As to conditions: any of the administered doses (10, 100, 1000 pmol), 2 h. How it is done:
(§1) The ability of 1 to label α-L-fucosidase in living mice was investigated next. Four wild-type C57Bl/6J male mice were injected with 100 μL vehicle (PBS) or PBS containing 10, 100 or 1000 pmol 1. After two hours, the mice were anesthetized, perfused with PBS and then brain, spleen, liver and kidney tissues were isolated. Tissue homogenates were prepared and each lysate was labeled prior to gel electrophoresis with red-fluorescent cyclophellitol β-aziridine JJB75, which labels β-exoglucosidases as loading control (ESI Fig. S6 ^†). Furthermore, tissue homogenates of vehicle-treated animals were labeled with excess 1 to visualize the maximal α-L-fucosidase labeling achievable in each tissue.
(§2) The appropriate ethics committee for animal experiments approved all experimental procedures. Wild-type C57Bl/6J male mice were obtained from Harlan and fed a commercially available lab diet (RMH-B; Hope Farms). Four C57BL/6J mice were injected intraperitoneally with 100 μL sterile PBS (vehicle) or PBS containing 10, 100, or 1000 pmol of ABP 1 (about 0.2 μg kg^–1, 2 μg kg^–1, and 20 μg kg^–1, respectively). At 2 h post-administration, urine was collected and the mice were anesthetized with FFM mix (25/25/50 fentanylcitrate/midazalam/H2O), blood was collected and perfused with PBS at 3.0 mL min^–1. Then urine and organs were collected and directly frozen in liquid nitrogen. Homogenates were made in 25 mM potassium phosphate buffer, pH 6.5, supplemented with 0.1% (v/v) Triton X-100 and protease inhibitor cocktail (Roche). After determination of protein concentration (BCA kit, Pierce), 50 μg total protein was incubated with 100 nM red fluorescent JJB75 and analyzed by SDS-PAGE. As controls, matching tissue homogenates of vehicle-treated animals were concomitantly labeled with 1 μM ABP 1 and 100 nM JJB75 prior to SDS-PAGE.

Series [2] concerns retaining α-L-fucosidases. As to the kind of experiment: In vivo labeling of α-L-fucosidases in mice. Also noted: species or system C57Bl/6J mice. How it is done: as §1, §2
Series [3] has as its system purified α-L-fucosidase from Bacteroides thetaiotaomicron. As to the kind of experiment: In vitro ABP labeling of purified bacterial α-L-fucosidase. The class given is binding. How it is done:
All pre-incubations and ABP labeling-reactions occurred for 30 min at 37 °C. Total lysates (50 μg), medium (500 μg) or purified protein preparations (5 μg) were labeled with 1 μM JJB256 1 or JJB244 2, dissolved in 150 mM McIlvaine buffer, pH 4.5, incubating for 30 min at 37 °C. For ABPP, protein preparations were pre-incubated with compounds 4 (100 μM), 6 (100 μM), 7–13 (1 or 5 mM, specified in the main text) prior to the addition of 100 nM fluorescent ABPs. Influence of pH on ABP labeling involved pre-incubation at pH 3–10 prior to addition of 100 nM ABP 1. Direct labeling of retaining β-glucosidases occurred at pH 5.0 in conjunction with 100 nM ABP JJB75. Samples were then denatured with 5× Laemmli buffer (50% (v/v) 1 M Tris–HCl, pH 6.8, 50% (v/v) 100% glycerol, 10% (w/v) DTT, 10% (w/v) SDS, 0.01% (w/v) bromophenol blue), boiled for 4 min at 100 °C, and separated by gel electrophoresis on 10% (w/v) SDS-PAGE gels running continuously at 90 V.[13],[14] Wet slab-gels were scanned on fluorescence using a Typhoon Variable Mode Imager (Amersham Biosciences) using λEX 488 nm and λEM 520 nm (band pass filter 40 nm) for green fluorescent JJB256 1 and λEX 532 nm and λEM 610 nM (band pass filter 30 nm) for red fluorescent JJB244 2 and JJB75.

In the next series the target is T2, FUCA2 (Homo sapiens, UniProt Q9BTY2).
T2 construct: expressed in transfected cells; host or cells: COS-7
T2 sequence (Q9BTY2 29-467): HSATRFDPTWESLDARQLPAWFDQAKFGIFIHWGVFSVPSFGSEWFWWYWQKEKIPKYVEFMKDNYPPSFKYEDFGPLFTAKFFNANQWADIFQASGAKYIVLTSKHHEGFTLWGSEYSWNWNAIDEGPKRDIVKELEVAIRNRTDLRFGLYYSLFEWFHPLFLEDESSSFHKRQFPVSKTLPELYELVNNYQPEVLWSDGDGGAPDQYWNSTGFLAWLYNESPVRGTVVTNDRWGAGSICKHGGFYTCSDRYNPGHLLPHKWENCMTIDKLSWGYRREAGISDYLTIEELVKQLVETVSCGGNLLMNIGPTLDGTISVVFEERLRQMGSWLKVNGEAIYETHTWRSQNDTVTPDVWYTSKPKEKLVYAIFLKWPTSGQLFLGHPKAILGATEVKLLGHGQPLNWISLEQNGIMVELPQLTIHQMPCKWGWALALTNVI
The series can be described thus: In vitro ABP labeling of FUCA2 overexpressed in COS cells. The series is classed as binding. From the text: Subsequently, we exposed lysates of spleens from a healthy human individual and a patient suffering from Gaucher disease to ABP 1.
The coding sequences of H. sapiens FUCA1 (NCBI reference sequence XM_005245821.1, using forward primer 5′-[…]-3′ and reverse primer 5′-[…]-3′), and of H. sapiens FUCA2 (NCBI reference sequence NM_032020.4, using forward primer 5′-[…] […]-3′ and reverse primer 5′-[…] […]-3′) were amplified via PCR and cloned into pDNOR-221 and thereafter sub-cloned in pcDNA™-DEST40 vector using the Gateway system (Invitrogen). Correctness of all constructs was verified by sequencing. Confluent COS-7 cells were transfected with pcDNA3.1 empty vector (Mock) or the vector with described insert in conjunction with FuGENE (Roche).
All pre-incubations and ABP labeling-reactions occurred for 30 min at 37 °C. Total lysates (50 μg), medium (500 μg) or purified protein preparations (5 μg) were labeled with 1 μM JJB256 1 or JJB244 2, dissolved in 150 mM McIlvaine buffer, pH 4.5, incubating for 30 min at 37 °C. […] Wet slab-gels were scanned on fluorescence using a Typhoon Variable Mode Imager (Amersham Biosciences) using λEX 488 nm and λEM 520 nm (band pass filter 40 nm) for green fluorescent JJB256 1 and λEX 532 nm and λEM 610 nM (band pass filter 30 nm) for red fluorescent JJB244 2 and JJB75.

Consider `CC1=CC(C)=[N+]2C1=C(CCCCc1cn(CCCCCCCC(=O)N3[C@@H]4[C@@H](C)[C@@H](O)[C@@H](O)[C@H](O)[C@@H]43)nn1)c1c(C)cc(C)n1[B-]2(F)F` [compound 1], for which the “in vivo brain FUCA1 labeling” value in series [1] is reported as “no in vivo brain FUCA1 labeling was observed”. Further, in series [2] (concluded from absent brain labeling), the brain penetration entry is listed as “does not penetrate the brain”. Besides, the “in vivo labeling of α-fucosidase in spleen, liver and kidney” value in series [2] (injection of 1000 pmol, 2 h) is recorded as “substantial labeling”. Also, the “in vivo labeling of retaining α-L-fucosidases in spleen, liver and kidney” value in series [2] (intraperitoneal, 10, 100 or 1000 pmol, 2 h) is listed as “dose-dependent labeling”. Also, the labeling of enzyme result in series [3] is on record as “efficiently labels”; on FUCA2, “labeled”.
